Data from US20260132172A1, “IN VITRO BIOSYNTHESIS OF DIVERSE PYRIDINE-BASED MACROCYCLIC PEPTIDES” (The Brd. of Trustees of the Univ. of Illinois, priority 2022, published 2026).
Where a SMILES comes first, the peptide text is derived from it. The star is where a group is joined. 5FAM = O=C1OC2(c3ccc(O)cc3Oc3cc(O)ccc32)c2ccc(C(=O)*)cc21

Tests used:
MroB = experiment: Competition fluorescence polarization with fluorescein-Δ12MroA1, MroB; assay type: binding, Micromonospora rosaria; conditions: competition FP, 80 nM enzyme, 5 nM labeled Δ12MroA1
Protocol: (§1) The initial sample contained 80 nM enzyme, 5 nM labeled Δ12MroA1 peptide, and competitor peptide (concentration is from 20 μM to 100 μM, depending on the experiment). In a black 384-well plate (Corning 3575), 30 μL of initial sample was added to the first well, followed by 13 2-fold dilutions into subsequent wells containing 80 nM MBP-MroB and 5 nM labeled Δ12MroA1. The plate was covered from light and incubated at room temperature for 10 min, and then fluorescence polarization was measured (Biotek Synergy H4 hybrid reader) using the following filter (Ex: Em—485 nm/20 nm: 518 nm/20 nm). The obtained data was converted to anisotropy value and plotted against peptide concentration, and fitted to dose-response function:
(§2) Where: y=anisotropy value, A1=minimum anisotropy, A2=maximum anisotropy, p=Hill's coefficient, x=competitor concentration. The obtained IC50 was used to calculate inhibitor constant Krusing the following equation: 12
(§3) In cases where competitor concentration was not high enough to achieve a plateau, the competition curve was fitted with minimum anisotropy fixed to be the same value as the anisotropy value of the free probe solution. This calculation assumed that the labeled peptide was completely displaced from the enzyme binding pocket at a very high concentration of the competitor. […] The specific minimum anisotropy used in this experiment for both MroB and MroD was 65.

MroD [1] = experiment: Competition fluorescence polarization with fluorescein-Δ12MroA1, MroD; assay type: binding, Micromonospora rosaria; conditions: competition FP, 80 nM enzyme, 5 nM labeled Δ12MroA1
Protocol: as §1, §2, §3

MroBCD = MroBCD treatment of precursor peptides, overall pyritide biosynthesis; assay type: biochemical, Micromonospora rosaria; conditions: result in words
Protocol: (§4) In a 0.65 mL protein low-binding Eppendorf tube placed on ice. 0.75 μL of purified mroA variant template DNA was mixed with 0.75 μL of Solution B and 1 μL of Solution A of PURExpress In vitro Protein Synthesis Kit (E6800L) purchased from NEB (total volume of reaction is 2.5 μL). The translation reactions were performed at 37° C. for 1 h on an aluminum block.
For a full MroBCD substrate scope investigation, a total translation volume for each variant of 7.5 μL was performed. 1.5 μL of 90 mM iodoacetamide (IAA) was added to quench dithiothreitol (DTT) in the translation reaction mixture, a thiol-based nucleophile that can react with electrophilic dehydroalanines generated from MroBC-catalyzed dehydration assays. The translation product was split into two parts with these corresponding volumes: 3 μL and 6 μL. In the 6 μL part. 10.2 μL of the enzyme mix containing enzymes and cofactors was added along with 1.8 μL 90 mM ATP (pH 7.5), which was used to initiate the reaction. […]
After incubation, the enzyme reaction (18 μL) was split into two equal parts. […] The crystallized spots were then analyzed using MALDI-TOF-MS (Bruker Ultraflex). […]

MBP-MroB = experiment: Fluorescence polarization to measure KD with MroB; assay type: binding, Micromonospora rosaria
Protocol: (§5) All proteins and peptides were prepared in the 0.5× storage buffer before concentration/FP measurement. Experiments were done in triplicates. Stock fluorescein-labeled peptide was measured concentration using A490 (ε: 70,000 M^−1 cm^−1). Initial sample was prepared: 5 nM labelled Δ12MroA1 (for MroD; for MroB, only 2 nM labelled Δ12MroA1 was used), 10 μM MBP-MroB (A280 ε: 178,885 M^−1 cm^−1) or 10 μM MBP-MroD (A280 ε:115,740 M^−1 cm^−1). In a black 96-well plate (Corning 3686), 50 μL of initial sample was added to the first well, followed by 11 3-fold dilutions into subsequent wells containing 5 nM labeled Δ12MroA1. The plate was covered from light and incubated at room temperature for 1 h, and then fluorescence polarization was measured (Biotek Synergy H4 hybrid reader) using the following filter (Excitation: Emission—485 nm/20 nm: 518 nm/20 nm). The obtained data was converted to anisotropy value and plotted against protein concentration. Using the OriginPro software, the data were fitted to receptor depletion equation:^11
(§6) Where: y=anisotropy value, A1=minimum anisotropy, A2=maximum anisotropy, Lt=probe concentration, and x=total enzyme concentration.

MBP-MroD = experiment: Fluorescence polarization to measure KD with MroD; assay type: binding, Micromonospora rosaria
Protocol: as §5, §6

MroB/C = MroB/C dehydration (Dha formation) of MroA precursor peptide variants, MALDI-TOF-MS / LC-MS/MS; assay type: biochemical, Micromonospora rosaria; conditions: MroA2 multi-site variants, in vitro translated, MALDI-TOF-MS
Protocol: as §4
For a full MroBCD substrate scope investigation, a total translation volume for each variant of 7.5 μL was performed. 1.5 μL of 90 mM iodoacetamide (IAA) was added to quench dithiothreitol (DTT) in the translation reaction mixture, a thiol-based nucleophile that can react with electrophilic dehydroalanines generated from MroBC-catalyzed dehydration assays. The translation product was split into two parts with these corresponding volumes: 3 μL and 6 μL. In the 6 μL part. 10.2 μL of the enzyme mix containing enzymes and cofactors was added along with 1.8 μL 90 mM ATP (pH 7.5), which was used to initiate the reaction. The enzyme mix was made by adding these components in the following order: HEPES pH 7.5, MgCl2, glutamate, T. bispora tRNA^Glu (CUC), thermostable inorganic pyrophosphatase (TIPP), TEV (L56V/S135G/S219V) (w/w ratio with a total amount of MBP-tagged protein=1:10), MBP-MroB, MBP-MroC, and T. bispora GluRS. The enzyme mix was incubated 25 min at room temperature before adding to the translation product to facilitate in situ TEV-catalyzed cleavage of MBP from MBP-MroB and MBP-MroC. The enzymatic reaction proceeded for 1 h at room temperature. Overall, the concentration of components in the 18 μL reaction mix is as follows: 50 mM HEPES pH 7.5, 5 mM MgCl2. L-glutamate 1 mM, 3 μM T. bispora tRNA^Glu, 1 μM T. bispora GluRS, 2 μM MBP-MroB, 2 μM MBP-MroC, […], 0.027 U/μL TIPP, and 5 mM IAA. In addition, the 3 μL part was incubated with the same buffer lacking enzymes and tRNA as a translation control.
The reactions were performed similarly as described above, with 10 μM substrate concentration and without IAA. The total volume of each reaction is 100 μL.
Enzymatic assays were desalted using solid-phase extraction prior to LC-ESI-MS/MS analysis. Specifically, except for the thiazol(in)es-containing pyritide (which utilize 8 mg Pierce C18 Spin Column), the samples were applied to Toptip C18 (10-200 μL, Glygen Corp) wetted with 50 μL of 80% acetonitrile (0.1% formic acid) and equilibrate with 150 μL of 0.1% formic acid following the manufacturer instructions. The C18 columns (tips) are then washed with 150 μL of 0.1% formic acid and eluted using 100 μL 80% acetonitrile (0.1% formic acid). The samples were then dried utilizing lyophilization and redissolved in 25% acetonitrile (80 μL for enzymatic assays of in vitro-translated substrates and 200 μL for enzymatic assays of purified substrates). Then 20 μL of each sample was injected into an Agilent AdvanceBio Peptide Plus column (2.1×150 mm, 2.7 μm) equipped with an Agilent 6545B Q-TOF interfaced with an Agilent 1290 Infinity II LC system. Mobile phase solvents were composed of H2O, 0.1% formic acid (Solvent A), and acetonitrile 0.1% formic acid (Solvent B). The column compartment was maintained at 35° C. during all experiments. The column was equilibrated with 5 column volumes of starting mobile phase (95% A and 5% B) between injections. The gradient of all LC runs was as follows: 0-2 min: 95% A 5% B, 2-3 min: 70% A 30% B, 3-18 min: 20% A 80% B, 18-20 min: 5% A 95% B. The samples were run to waste for the first 3 min before applying to the mass spectrometer. Mass range was set from 100 to 1700 m/z (except for 412MroA1 W7G: 100-3000 m/z). MS parameters were as follows: gas, 320° C. at 8 L/min: nebulizer, 35 psig: nozzle voltage, 1000 V: sheath gas, 350° C. at 11 L/min: capillary, 3500 V: fragmentor, 125 V: skimmer, 65 V: MS scan rate (10) spectra/s): MS-MS scan rate (5 spectra/s); and isolation width (MS/MS), 1.3 m z. […]

MroD [2] = experiment: MroD [4+2] macrocyclization of didehydrated MroA2 variants, MALDI-TOF-MS; assay type: biochemical, Micromonospora rosaria; parameters: key: +++ indicates enzyme activity roughly equal to wild-type MroA2; ++ indicates modestly reduced enzyme activity; + indicates severely reduced enzyme activity; − indicates no detectable enzyme activity (no macrocycles observed); conditions: MroA2 multi-site variants; qualitatively estimated from leader peptide vs remaining didehydrated intermediate
Protocol: (§7) After incubation, the enzyme reaction (18 μL) was split into two equal parts. One part was treated with MBP-MroD such that the final concentration of MBP-MroD is 3 μM, and the other part was added the same volume but with buffer lacking MBP-MroD (50 mM HEPES, 300 mM NaCl, 2.5% glycerol, 0.5 mM TCEP). The reaction further proceeded for 1.5 h at room temperature. All reaction mixture was then desalted with solid-phase extraction using Ziptip with 0.6 μL C18 resin (EMD Millipore) and crystallized on an MTP384 steel target plate using either saturated sinapic acid or 50 mg/mL Super DHB [dissolved in 60% acetonitrile and 0.1% trifluoroacetic acid (TFA)] as the matrix. The crystallized spots were then analyzed using MALDI-TOF-MS (Bruker Ultraflex). The external standard for MALDI-TOF-MS analysis is ProteoMass Peptide and Protein MALDI-MS Calibration Kit (Sigma).

MroD [3] = experiment: as above; assay type: biochemical, Micromonospora rosaria; conditions: MroA2 multi-site variants; qualitatively estimated from leader peptide vs remaining didehydrated intermediate
Protocol: as §7

[4] = target: MBP-MroB (Micromonospora rosaria MroB with maltose-binding protein fused to the N-terminus) (Micromonospora rosaria) [MBP: P0AEX9]; experiment: fluorescence polarization, MBP-MroB titrated against labeled peptide
[5] = target: MBP-MroD (Micromonospora rosaria MroD with maltose-binding protein fused to the N-terminus) (Micromonospora rosaria) [MBP: P0AEX9]; experiment: fluorescence polarization, MBP-MroD titrated against labeled peptide

## H-SDLDIVDLDLAVDEELAALSVGGLGNTEVGASGWLGSWVI-OH [Δ12MroA1]
MroB
  IC50: 680 ± 40 nM
MroD [1]
  IC50: 900 ± 20 nM
MroBCD
  overall pyritide biosynthesis (dehydration and macrocyclization) by MroBCD: full dehydration and macrocyclization

## CC[C@H](C)[C@H](NC(=O)[C@@H](NC(=O)[C@H](Cc1c[nH]c2ccccc12)NC(=O)[C@H](CO)NC(=O)CNC(=O)[C@H](CC(C)C)NC(=O)[C@H](Cc1c[nH]c2ccccc12)NC(=O)CNC(=O)[C@H](CO)NC(=O)[C@H](C)NC(=O)CNC(=O)[C@@H](NC(=O)[C@H](CCC(=O)O)NC(=O)[C@@H](NC(=O)[C@H](CC(N)=O)NC(=O)CNC(=O)[C@H](CC(C)C)NC(=O)CNC(=O)CNC(=O)[C@@H](NC(=O)[C@H](CO)NC(=O)[C@H](CC(C)C)NC(=O)[C@H](C)NC(=O)[C@H](C)NC(=O)[C@H](CC(C)C)NC(=O)[C@H](CCC(=O)O)NC(=O)[C@H](CCC(=O)O)NC(=O)[C@H](CC(=O)O)NC(=O)[C@@H](NC(=O)[C@H](C)NC(=O)[C@H](CC(C)C)NC(=O)[C@H](CC(=O)O)NC(=O)[C@H](CC(C)C)NC(=O)[C@H](CC(=O)O)NC(=O)[C@@H](NC(=O)[C@@H](NC(=O)[C@H](CC(=O)O)NC(=O)[C@H](CC(C)C)NC(=O)[C@H](CC(=O)O)NC(=O)[C@H](CO)NC(=O)c1ccc2c(c1)C(=O)OC21c2ccc(O)cc2Oc2cc(O)ccc21)[C@@H](C)CC)C(C)C)C(C)C)C(C)C)[C@@H](C)O)C(C)C)C(C)C)C(=O)O [fluorescein-Δ12MroA1] (5FAM-SDLDIVDLDLAVDEELAALSVGGLGNTEVGASGWLGSWVI-OH)
MBP-MroB
  Kd: ~60 nM
MBP-MroD
  Kd: ~12 nM

## SGFFGRSWLI [MroA2, wild-type precursor peptide of M. rosaria]
MroB/C
  Dha formation: 2 Dha
MroBCD
  overall pyritide biosynthesis (dehydration and macrocyclization) by MroBCD: yielding the expected pyritides
MroD [2]
  Relative MroD conversion: +++

## SGIAKAGQSWLI [Number 28]
MroB/C
  Dha formation: 2 Dha
MroD [3]
  Relative MroD conversion: 1

## fluorescein-Δ12MroA1 (Δ12MroA1 N-terminally labeled with fluorescein) (peptide)
[4]
  Kd: 60 nM
[5]
  Kd: 12 nM
